Source: patent publication EP4335840A1, “NEW CONTRAST AGENTS FOR USE IN DIAGNOSTIC IMAGING” (priority 2022, dated 2024)

Legend:
OATP1B1 = target: T1, OATP1B1 (Homo sapiens, UniProt Q9Y6L6); test: Uptake into stable transfected OATP1B1 HEK 293 cells; assay type: cell-based; conditions: 100 µM, 40 min, relative to RC1 (Gd-EOB-DTPA)
T1 sequence (Q9Y6L6 1-691): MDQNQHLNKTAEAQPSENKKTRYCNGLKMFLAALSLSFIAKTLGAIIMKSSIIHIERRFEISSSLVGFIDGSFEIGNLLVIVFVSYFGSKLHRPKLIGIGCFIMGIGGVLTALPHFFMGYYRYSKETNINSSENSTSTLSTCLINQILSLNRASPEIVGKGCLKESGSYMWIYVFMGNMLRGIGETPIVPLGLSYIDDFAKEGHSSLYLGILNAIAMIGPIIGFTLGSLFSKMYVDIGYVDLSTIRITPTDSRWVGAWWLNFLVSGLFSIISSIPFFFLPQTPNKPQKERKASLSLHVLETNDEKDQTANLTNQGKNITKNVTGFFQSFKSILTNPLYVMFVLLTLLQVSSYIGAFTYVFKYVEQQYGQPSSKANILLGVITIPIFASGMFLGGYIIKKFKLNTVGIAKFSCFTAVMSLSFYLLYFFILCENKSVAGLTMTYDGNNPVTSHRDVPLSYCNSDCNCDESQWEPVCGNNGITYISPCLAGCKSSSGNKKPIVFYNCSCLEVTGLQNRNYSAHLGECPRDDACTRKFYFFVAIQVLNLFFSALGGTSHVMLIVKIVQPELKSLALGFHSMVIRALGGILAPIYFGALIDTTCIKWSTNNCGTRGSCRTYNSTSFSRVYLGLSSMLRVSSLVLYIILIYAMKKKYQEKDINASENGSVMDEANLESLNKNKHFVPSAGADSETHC
Experimental: Human stable transfected OATP1B1 human embryonic kidney 293 cells (OATP1B1 HEK 293, SLCO1B1, Entrez Gene ID: 10599) were used (Leonhardt M et al. Drug Metab Dispos. 2010 Jul;38(7):1024-8). The following culture medium was used: 500 mL DMEM (Dulbecco's Modified Eagle Medium - high Glucose, D6429), 50 mL FCS (fetal bovine serum, Fa. Sigma, F7524), 5.8 mL G418 (Geneticin, Fa. Gibco 10131-027) and 5 mL Pen-Strep. (Penicillin-Streptomycin, Fa. Gibco, Ref 15140-122). Cryopreserved cells were shortly thawed in water bath and diluted in 10 mL warm culture medium (37°C). After medium change the cells were grown for 3d in a 25 cm^2 cell culture flask. After 3 to 5d the cells were transferred into 75 cm^2 flasks. For the splitting the cells were incubated with 1.5 mL trypsin (Trypsin-EDTA (1x) 0,05%, Ref 25300-054 100ml, Fa. Gibco) for 3-5min in the incubator (37°C, 5% CO2 and […]). After centrifugation and washing with medium the cells were counted (50 µL cell suspension and 50 µL trypan blue (Trypan Blue Solution, 93595-50ml, Fa. Fluka). Cells were cultured (1×10^5 cells/well) in poly-D-lysine coated 24-well plates (Fa. Corning, Ref: 354414) in 1.5 mL medium per well. After 48h in the incubator the medium was changed and 1.5 mL/well sodium butyrate containing medium were added (40 mL culture medium plus 400 µL Na-Butyrate, Fa. Sigma Aldrich B5887-5G, 250 mg in 2.27 mL MilliQ water). After 24h in the incubator the medium was vacuumed off and 1.5 mL transport buffer was added and incubated for 10min. The transport buffer contains the following ingredients: 500 mL HBSS (Hank's balanced salt solution, Hyclone, SH30268.01), 5 mL HEPES buffer (4-(2-hydroxyethyl)-1-piperazineethanesulfonic acid, Gibco 15630-056) and 3.9 mL glucose (Sigma, G8270-100, 90 g/200mL MilliQ water). All test items were prepared in transport buffer at a final concentration of 100 µM from stock solutions (180 to 500 mM concentration). The OATP1B1 HEK 293 cells were incubated with test solutions (test item in transport buffer 500 µL) for 40min on a thermoshaker without shaking (PHMP, Fa. Grant Bio). Triplicates were performed for each test item. After incubation the cells were washed with 2 mL of cold PBS (+) buffer (Dulbeccos PBS +, Fa. Gibco). […] As a reference standard Gd-EOB-DTPA (gadoxetate) is used in the same well plate. The OATP1B1 HEK 293 uptake of the test compound is calculated relative to gadoxetate (resulting in the unit % of RC1).

[1] = Water solubility in aqueous buffer; assay type: physicochemical; conditions: aqueous buffer 10 mM Tris-HCl, pH 7.4, 20°C; Gd by ICP-MS
Experimental: The exploratory water solubility of the compounds is determined at room temperature (20°C) in 0.5 mL buffer solution (10 mM Tris-HCI, pH 7.4) in the microcentrifuge tubes (Eppendorf, 2.0 mL safe-lock caps). The solid compounds were added stepwise to the buffer solution. More substance is added once all the suspended material is dissolved until an equilibrium between undissolved and dissolved substance is reached. The suspension was mixed using a shaker (Heidolph Reax 2000) and treated 5 min in an ultrasound bath (Bandelin, Sonorex Super RK255H). The Gadolinium concentration of the test substance in the clear solution is measured by ICP-MS. Table 1: Solubilities of compounds in aqueous buffer at 20°C (pH 7.4).

With “Gadolinium-2,2',2"-[10-(carboxymethyl)-2-(4-ethoxybenzyl)-1,4,7,10-tetraazacyclododecane-1,4,7-triyl]triacetate [Example 8]” the “Uptake into OATP1B1-HEK 293 cells” value (OATP1B1) was 208 % of RC1.

In the case of “Gadolinium-2,2',2"-[10-(carboxymethyl)-2-(4-ethoxybenzyl)-1,4,7,10-tetraazacyclododecane-1,4,7-triyl]triacetate [Example 9]”, the Solubility [1] is reported as > 145 mM and the “Uptake into OATP1B1-HEK 293 cells” value (OATP1B1) is reported as 60 % of RC1.

For “Gadolinium-2,2',2"-[(2S)-2-(4-butoxybenzyl)-10-(carboxymethyl)-1,4,7,10-tetraaza cyclododecane-1,4,7-triyl]triacetate [Example 12]”, the Solubility [1] was 211 mM and the “Uptake into OATP1B1-HEK 293 cells” value (OATP1B1) was 119 % of RC1.

In the case of “Gadolinium-2,2',2"-[(2S)-2-(4-butoxybenzyl)-10-(carboxymethyl)-1,4,7,10-tetraaza cyclododecane-1,4,7-triyl]triacetate [Example 13]”, the Solubility [1] is reported as > 43 mM and the “Uptake into OATP1B1-HEK 293 cells” value (OATP1B1) is reported as 847 % of RC1.

In the case of “Gadolinium-2,2',2"-[(2S)-10-(carboxymethyl)-2-(4-ethoxybenzyl)-1,4,7,10-tetraazacyclododecane-1,4,7-triyl]triacetate [Example 10]”, the Solubility [1] is reported as > 23 mM and the “Uptake into OATP1B1-HEK 293 cells” value (OATP1B1) is reported as 212 % of RC1.

In the case of “Gadolinium-2,2',2"-[(2S)-10-(carboxymethyl)-2-(4-ethoxybenzyl)-1,4,7,10-tetraazacyclododecane-1,4,7-triyl]triacetate [Example 11]”, the Solubility [1] is reported as > 146 mM and the “Uptake into OATP1B1-HEK 293 cells” value (OATP1B1) is reported as 96 % of RC1.
